Values after ≈ are worked out from the molar mass of the structure shown. *1 amine or outer side, *2 acyl side, *3 side chain or, on linkers, in order; H or OH if unused. Where a SMILES comes first, the peptide text is derived from it. Bridges are numbered along the chain shown (N, C = ends). [ ]: non-standard residue; d: D form. The star is where a group is joined. ξ: configuration not given here. Phe(3R-OH) = O=C([C@@H](N[*:1])[C@H](O[*:3])c1ccccc1)[*:2]; NMeTrp(4-OMe) = CN[CH](Cc1c[nH]c2cccc(OC)c12)C(=O)O; X1 = O=C(C(N[*:1])C(O)c1ccccc1)[*:2]; NMeT = CN[CH](C(=O)O)[CH](C)O; NMeI = CC[CH](C)[CH](NC)C(=O)O; ξNMe2Val = CC(C)C(C(=O)*)N(C)C; NMeL = CN[CH](CC(C)C)C(=O)O; NMeV = CN[CH](C(=O)O)C(C)C
Key:
ClpC1-FL = ClpC1-FL (Mycobacterium tuberculosis, UniProt P9WPC9); type: binding; settings: for Stoichiometry (Sm): calculated from SPR responses, compound molecules per ClpC1; for improvement of χ^2, multi-site versus one-site fit: multi-site fit better; for difference between Kd1 and Kd2: multi-site model
[1] = tested on: ClpC1–ClpP1–ClpP2 complex; settings: 2019, cited from earlier work; for effect on proteolytic activity: ECU, lassomycin: ref Choules et al., Gavrish et al., 2014; for effect on proteolysis: CYMA, RUF-I: ref Schmitt et al., 2011, Choules et al.
[2] = co-crystallization attempts
ClpC1 [3] = settings: cited from earlier work
ClpC1 [4] = settings: cited from earlier work; remark: listed apart in the source
[5] = biological target: full-length ClpC1 (ClpC1-FL) (Mycobacterium tuberculosis) (UniProt P9WPC9); test: SPR
[6] = biological target: N-terminal domain of ClpC1 (ClpC1-NTD), residues 1-145 plus a C-terminal His tag (Mycobacterium tuberculosis) (UniProt P9WPC9); test: crystal structure

CCC(C)C(C(=O)NC1C(=O)N(C)C(C(C)O)C(=O)NC(C(C)C)C(=O)N(C)C(CC(C)C)C(=O)NC(C(C)C)C(=O)N(C)C(C(C)C)C(=O)N(C)C(Cc2c[nH]c3cccc(OC)c23)C(=O)NC(C(C)C)C(=O)NC(C(O)c2ccccc2)C(=O)NC(C(C)C)C(=O)OC1C)N(C)C(=O)C(NC(=O)C(C(C)C)N(C)C)C(C)C (stereo not drawn) [ECU, ecumicin] (ξNMe2Val-V[NMeI]T[NMeT]V[NMeL]V[NMeV][NMeTrp(4-OMe)]V[X1]V; ester 3-C; configuration not given here)
χ^2 of one-site fit (ClpC1-FL; 1:1 Langmuir model, smaller = better fit): 16.1
Stoichiometry (Sm) (ClpC1-FL): 2.2
χ^2 of multi-site fit (ClpC1-FL; heterogeneous ligand model, smaller = better fit): 3.2
improvement of χ^2, multi-site versus one-site fit (ClpC1-FL): fivefold
difference between Kd1 and Kd2 (ClpC1-FL): about 18 fold
effect on proteolytic activity [1]: decrease the proteolytic activity
solubility (in words) [2]: poor solubility
effect on ATPase activity (ClpC1 [3]): activate the ATPase activity
enhancement of ATPase activity of ClpC1 (ClpC1 [3]): at least twofold
MIC90 (Mtb): 0.11 ± 0.013 µM (≈ 0.176 µg/mL)

CN[C@H](C(=O)N[C@H](C(=O)N[C@@H]1C(=O)N(C)[C@@H]([C@@H](C)O)C(=O)N[C@@H](C(C)C)C(=O)N(C)[C@@H](CC(C)C)C(=O)N[C@@H](C(C)C)C(=O)N(C)[C@@H](C(C)C)C(=O)N(C)[C@@H](Cc2c[nH]c3cccc(OC)c23)C(=O)N[C@@H](C(C)C)C(=O)N[C@@H]([C@H](O)c2ccccc2)C(=O)N[C@@H](C(C)C)C(=O)O[C@@H]1C)C(C)C)C(C)C [OMS-A, ohmyungsamycin A] (H-[NMeV]VT[NMeT]V[NMeL]V[NMeV][NMeTrp(4-OMe)]V[Phe(3R-OH)]V; ester 3-C)
Stoichiometry (Sm) (ClpC1-FL): 2.2
improvement of χ^2, multi-site versus one-site fit (ClpC1-FL): threefold
difference between Kd1 and Kd2 (ClpC1-FL): fivefold

C/C=C/C[C@@H]1NC(=O)[C@H](CC(C)C)N(C)C(=O)[C@H](CC(C)C)NC(=O)[C@H](Cc2ccc(O)c([N+](=O)[O-])c2)NC(=O)[C@H](C)N2C(=O)[C@H](CC(C)C2O)N(C)C(=O)[C@H](Cc2cn(C(C)(C)C3CO3)c3ccccc23)NC1=O (stereo partly drawn) [RUF-I, rufomycin I]
binding in the presence of ECU (ClpC1 [4]): cannot bind in the presence of ECU
effect on proteolysis [1]: inhibition
effect on ATPase activity (ClpC1 [3]): no significant effect
enhancement of ATPase activity of ClpC1 (ClpC1 [3]): no significant effect

cyclomarin A [CYMA, reference compound]
effect on proteolysis [1]: activation
effect on ATPase activity (ClpC1 [3]): no effect on the ATPase activity

ecumicin (ECU) (peptide)
stoichiometry N [5]: 2.2
stoichiometry N (ECU per ClpC1-NTD) [6]: 2

lassomycin [reference compound]
effect on proteolytic activity [1]: decrease the proteolytic activity
effect on ATPase activity (ClpC1 [3]): activate the ATPase activity

ohmyungsamycin A (OMS-A) (peptide)
stoichiometry N [5]: 2.2

ohmyungsamycin B (OMS-B) (peptide)
Kd1 (site 1, multi-site fit) [5]: 962 nM
Kd2 (site 2, multi-site fit) [5]: 1740 nM

ohmyungsamycin B [OMS-B]
reduction in binding relative to ECU (ClpC1-FL; structural analogs of ECU): tenfold
